Measurements taken from PMC8795197, “Safety and activity of WX-0593 (Iruplinalkib) in patients with ALK- or ROS1-rearranged advanced non-small cell lung cancer: a phase 1 dose-escalation and dose-expansion trial” (Signal Transduction and Targeted Therapy, 2022).
Entries after “also recorded” stand apart in the source; their conditions may differ.

How the values were obtained:
[1] = system: Ba/F3 CD74-ROS1-D2033N; test: Growth of transfected Ba/F3 cells (CellTiter-Glo, 3 days); format: cell-based; conditions: Mus musculus, BaF3
Protocol: (§1) Harvest cells during the logarithmic growth period and count cells using blood counting chamber. Adjust cell concentration with culture medium. Add 90µl cell suspensions to two 96-well plates to the final cell density as described before. Incubate the plate overnight in humidified incubator at 37℃ with 5% CO2. Dispense 10µl drug solution (10×) to each well (triplicate for each concentration), and the DMSO final concentration in culture medium is 0.1% [v/v]. Culture the plates for 3 days.On Day 3, Read luminescent using Multi Label Reader. The software of GraphPad Prism was used to calculate IC50. The graphical curves were fitted using a nonlinear regression model with a sigmoidal dose response.

[2] = system: Ba/F3 CD74-ROS1-L1951R; test: as above; format: cell-based; conditions: Mus musculus, BaF3
Protocol: as §1

[3] = system: Ba/F3 CD74-ROS1-S1986F; test: as above; format: cell-based; conditions: Mus musculus, BaF3
Protocol: as §1

[4] = system: Ba/F3 CD74-ROS1-S1986Y; test: as above; format: cell-based; conditions: Mus musculus, BaF3
Protocol: as §1

[5] = system: Ba/F3 SLC34A2-ROS1-G2032R; test: as above; format: cell-based; conditions: Mus musculus, BaF3
Protocol: as §1

[6] = system: Ba/F3 SLC34A2-ROS1-L2026M; test: as above; format: cell-based; conditions: Mus musculus, BaF3
Protocol: as §1

[7] = system: Ba/F3 SLC34A2-ROS1; test: as above; format: cell-based; conditions: Mus musculus, BaF3
Protocol: as §1

[8] = target: ALK mutant C1156Y (Homo sapiens, UniProt Q9UM73, C1156Y); test: In vitro enzyme inhibition study; format: biochemical; conditions: difference in inhibitory activity within 3 times
Description: (§2) The inhibitory activities were low for other serine, threonine, and tyrosine […], except for the EGFR wild type, within the tested concentration range.

[9] = target: ALK mutant L1196M (Homo sapiens, UniProt Q9UM73, L1196M); test: In vitro enzyme inhibition study; format: biochemical; conditions: difference in inhibitory activity within 3 times
Description: as §2

[10] = target: ALK wild type (Homo sapiens, UniProt Q9UM73); test: In vitro enzyme inhibition study; format: biochemical; conditions: difference in inhibitory activity within 3 times
Description: as §2

[11] = target: EGFR L858R/T790M (Homo sapiens, UniProt P00533, L858R/T790M); test: In vitro enzyme inhibition study; format: biochemical; conditions: difference in inhibitory activity within 3 times
Description: as §2

[12] = target: M2 (Homo sapiens, UniProt P08172); test: GPCR antagonist screening assay; format: cell-based
[13] = target: Eta (Homo sapiens, UniProt P25101); test: GPCR antagonist screening assay; format: cell-based
[14] = General pharmacology: CNS and respiratory system; format: in vivo, rats
Protocol: […]. Therefore, WX-0593 has a low risk of cardiotoxicity. There were no effects on the CNS and respiratory system in rats at doses of 3, 10, and 30 mg/kg. However, WX-0593 10 and 30 mg/kg may result in benign respiratory rate and decreases in minute ventilation in female rats. There were no effects on the cardiovascular system, blood pressure, ECG parameters or waveforms in monkeys at doses of 5, 10, and 25 mg/kg; 10 and 25 mg/kg may result in mild decreases in heart rate (within the normal range) and PR prolongation and QTc shortening associated with bradycardia within the normal range (no statistical difference when compared to the control arm). No cardiovascular system adverse reactions related to the test product were found. The human equivalent dose (using 60 kg) is 3636 mg/person in CNS, 3636 mg/person in male respiratory system and 363.6 mg/person in female respiratory system, and 607 mg/person in cardiovascular system.

[15] = Reproductive toxicity study; conditions: rat, in vivo
[16] = cynomolgus monkey, in vivo
[17] = in vivo; conditions: cynomolgus monkey, po; for AUC(0-t) / Cmax: 50 mg/kg

ALK wild type, sequence (Q9UM73 19-1620): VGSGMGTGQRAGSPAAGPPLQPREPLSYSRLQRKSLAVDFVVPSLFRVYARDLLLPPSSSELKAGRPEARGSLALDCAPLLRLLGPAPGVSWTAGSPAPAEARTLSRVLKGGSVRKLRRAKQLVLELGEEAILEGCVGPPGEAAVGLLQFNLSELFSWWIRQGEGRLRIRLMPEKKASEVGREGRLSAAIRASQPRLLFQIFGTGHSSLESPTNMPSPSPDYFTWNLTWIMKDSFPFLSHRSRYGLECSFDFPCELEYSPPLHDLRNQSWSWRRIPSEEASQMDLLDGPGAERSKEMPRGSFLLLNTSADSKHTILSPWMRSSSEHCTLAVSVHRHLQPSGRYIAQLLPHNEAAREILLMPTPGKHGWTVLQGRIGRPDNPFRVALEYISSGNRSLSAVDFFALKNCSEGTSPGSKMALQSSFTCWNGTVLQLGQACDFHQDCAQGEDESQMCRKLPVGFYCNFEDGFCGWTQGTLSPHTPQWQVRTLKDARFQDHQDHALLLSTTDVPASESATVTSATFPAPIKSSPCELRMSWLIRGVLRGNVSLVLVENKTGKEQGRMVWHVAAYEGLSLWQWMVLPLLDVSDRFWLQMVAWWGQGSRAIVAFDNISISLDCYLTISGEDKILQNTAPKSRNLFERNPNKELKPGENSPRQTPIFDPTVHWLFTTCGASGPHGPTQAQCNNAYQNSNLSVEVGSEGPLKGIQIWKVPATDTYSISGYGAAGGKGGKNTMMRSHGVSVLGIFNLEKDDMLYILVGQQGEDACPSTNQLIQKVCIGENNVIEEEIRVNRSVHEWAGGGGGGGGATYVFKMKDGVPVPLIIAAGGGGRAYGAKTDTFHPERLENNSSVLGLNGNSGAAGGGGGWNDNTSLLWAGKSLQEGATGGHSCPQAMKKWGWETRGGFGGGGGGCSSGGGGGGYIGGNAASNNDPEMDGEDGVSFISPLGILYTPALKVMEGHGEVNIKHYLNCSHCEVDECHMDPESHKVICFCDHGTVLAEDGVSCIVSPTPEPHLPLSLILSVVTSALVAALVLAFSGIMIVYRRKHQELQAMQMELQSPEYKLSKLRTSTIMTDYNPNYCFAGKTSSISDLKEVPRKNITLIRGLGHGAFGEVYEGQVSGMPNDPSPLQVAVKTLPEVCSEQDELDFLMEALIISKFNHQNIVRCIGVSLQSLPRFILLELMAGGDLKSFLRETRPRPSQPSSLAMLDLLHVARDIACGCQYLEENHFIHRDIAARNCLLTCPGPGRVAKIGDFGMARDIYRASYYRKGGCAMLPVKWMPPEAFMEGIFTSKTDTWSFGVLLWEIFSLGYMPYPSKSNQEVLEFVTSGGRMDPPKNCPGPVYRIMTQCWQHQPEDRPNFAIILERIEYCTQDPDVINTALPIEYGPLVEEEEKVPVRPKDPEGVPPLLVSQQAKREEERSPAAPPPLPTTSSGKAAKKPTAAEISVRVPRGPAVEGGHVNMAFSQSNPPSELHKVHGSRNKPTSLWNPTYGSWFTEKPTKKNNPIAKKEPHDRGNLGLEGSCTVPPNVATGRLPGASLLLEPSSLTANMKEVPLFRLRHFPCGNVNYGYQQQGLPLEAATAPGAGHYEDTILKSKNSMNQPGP
ALK mutant C1156Y, sequence (Q9UM73 19-1620 C1156Y): as the sequence (Q9UM73 19-1620) above, with C1138Y counted along it
EGFR L858R/T790M, sequence (P00533 25-1210 T790M/L858R): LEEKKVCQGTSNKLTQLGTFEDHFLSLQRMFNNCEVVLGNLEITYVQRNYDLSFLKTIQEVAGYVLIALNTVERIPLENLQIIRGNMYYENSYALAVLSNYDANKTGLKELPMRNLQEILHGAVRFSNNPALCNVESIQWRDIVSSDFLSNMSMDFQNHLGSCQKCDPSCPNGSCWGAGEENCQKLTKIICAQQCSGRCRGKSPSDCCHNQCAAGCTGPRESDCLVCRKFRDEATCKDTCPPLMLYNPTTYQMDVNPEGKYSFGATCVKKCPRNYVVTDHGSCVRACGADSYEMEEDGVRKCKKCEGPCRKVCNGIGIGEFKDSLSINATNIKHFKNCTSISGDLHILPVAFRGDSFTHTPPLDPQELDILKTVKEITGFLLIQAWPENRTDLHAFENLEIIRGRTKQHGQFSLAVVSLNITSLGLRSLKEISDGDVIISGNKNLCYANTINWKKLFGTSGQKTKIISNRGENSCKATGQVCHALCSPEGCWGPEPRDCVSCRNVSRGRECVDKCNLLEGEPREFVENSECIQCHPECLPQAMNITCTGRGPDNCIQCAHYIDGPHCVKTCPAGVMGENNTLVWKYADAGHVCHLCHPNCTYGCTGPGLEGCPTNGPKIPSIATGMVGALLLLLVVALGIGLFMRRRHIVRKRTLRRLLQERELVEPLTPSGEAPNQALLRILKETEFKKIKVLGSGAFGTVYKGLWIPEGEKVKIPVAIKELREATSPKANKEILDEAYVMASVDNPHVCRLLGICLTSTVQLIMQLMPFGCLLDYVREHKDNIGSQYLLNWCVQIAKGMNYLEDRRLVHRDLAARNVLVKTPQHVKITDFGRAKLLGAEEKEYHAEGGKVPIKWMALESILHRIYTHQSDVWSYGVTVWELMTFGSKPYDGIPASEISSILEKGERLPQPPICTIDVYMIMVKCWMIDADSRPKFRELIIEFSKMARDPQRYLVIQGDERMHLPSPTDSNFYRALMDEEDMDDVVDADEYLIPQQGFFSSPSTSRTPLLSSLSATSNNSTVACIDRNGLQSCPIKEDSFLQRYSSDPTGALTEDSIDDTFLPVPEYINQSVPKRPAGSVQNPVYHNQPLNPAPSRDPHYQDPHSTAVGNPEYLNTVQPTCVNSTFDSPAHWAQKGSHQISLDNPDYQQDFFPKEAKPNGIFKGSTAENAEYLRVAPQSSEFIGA
ALK mutant L1196M, sequence (Q9UM73 19-1620 L1196M): as the sequence (Q9UM73 19-1620) above, with L1178M counted along it
M2, sequence (P08172 whole entry): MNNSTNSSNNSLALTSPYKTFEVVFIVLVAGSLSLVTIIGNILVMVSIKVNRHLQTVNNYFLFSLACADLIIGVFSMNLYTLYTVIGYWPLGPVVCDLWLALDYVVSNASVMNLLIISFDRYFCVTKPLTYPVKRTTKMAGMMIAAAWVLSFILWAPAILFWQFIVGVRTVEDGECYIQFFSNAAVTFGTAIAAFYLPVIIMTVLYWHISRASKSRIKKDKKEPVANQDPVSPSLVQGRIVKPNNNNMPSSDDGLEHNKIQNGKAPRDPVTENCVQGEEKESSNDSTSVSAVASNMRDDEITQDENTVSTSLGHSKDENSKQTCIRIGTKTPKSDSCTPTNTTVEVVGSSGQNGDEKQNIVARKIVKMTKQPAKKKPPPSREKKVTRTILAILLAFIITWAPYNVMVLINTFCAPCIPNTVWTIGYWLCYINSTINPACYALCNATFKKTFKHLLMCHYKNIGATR
Eta, sequence (P25101 21-427): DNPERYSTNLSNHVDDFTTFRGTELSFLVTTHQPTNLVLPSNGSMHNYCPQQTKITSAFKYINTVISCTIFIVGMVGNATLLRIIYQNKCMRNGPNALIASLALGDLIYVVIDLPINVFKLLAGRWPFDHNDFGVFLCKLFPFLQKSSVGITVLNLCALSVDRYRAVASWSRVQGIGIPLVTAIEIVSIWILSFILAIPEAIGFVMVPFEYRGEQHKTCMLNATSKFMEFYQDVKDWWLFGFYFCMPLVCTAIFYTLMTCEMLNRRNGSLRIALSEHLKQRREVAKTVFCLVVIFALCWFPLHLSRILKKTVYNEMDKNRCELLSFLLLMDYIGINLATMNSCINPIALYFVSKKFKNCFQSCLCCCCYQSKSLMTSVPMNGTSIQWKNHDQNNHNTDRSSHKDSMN

COc1cc(N2CCC3(CCN(C)CC3)CC2)ccc1Nc1ncc(Cl)c(Nc2ccccc2P(C)(C)=O)n1 [WX-0593]
IC50 [1]: 33.8 nM | IC50 [2]: 626 nM | IC50 [3]: 22.4 nM | IC50 [4]: 15.9 nM | IC50 [5]: 584 nM | IC50 [6]: 12 nM | IC50 [7]: 11 nM | inhibitory activity compared with brigatinib [8]: comparable with the activity of brigatinib; also recorded: comparable to brigatinib | inhibitory activity compared with brigatinib [9]: comparable with the activity of brigatinib; also recorded: comparable to brigatinib | inhibitory activity compared with brigatinib [10]: comparable with the activity of brigatinib; also recorded: comparable to brigatinib | inhibitory activity compared with brigatinib [11]: comparable with the activity of brigatinib; also recorded: comparable to brigatinib | IC50 [12]: > 10000 nM | IC50 [13]: 500 nM | effects on the CNS and respiratory system ([14]; 3, 10 and 30 mg/kg): no effects | human equivalent dose, CNS ([14]; using 60 kg): 3636 mg/person | human equivalent dose, female respiratory system ([14]; using 60 kg): 363.6 mg/person | human equivalent dose, male respiratory system ([14]; using 60 kg): 3636 mg/person | NOAEL as multiple of the effective dose in nude mice [15]: 8 times | NOAEL ([15]; read-out: NOAEL of fertility and early embryo developmental toxicity): 10 mg/kg | MTD as multiple of the effective dose in nude mice [16]: 20 times | MTD [17]: 50 mg/kg | AUC(0-t) ([17]; female): 50600 ng·h/mL | Cmax ([17]; female): 4010 ng/mL | AUC(0-t) ([17]; male): 35000 ng·h/mL | Cmax ([17]; male): 2180 ng/mL
